System: monocyte-free human T cells
Assay: Inhibition of 5-HT-dependent T Cell Proliferation
Assay type: cell-based
Conditions: PWM (1:200) and 5-HT (100 μm), 7 days, 3H-thymidine incorporation, 33 μM-0.1 μM
Text: The in vitro activity of the compounds according to the invention results from their capability to inhibit T cell proliferation, which is previously stimulated by serotonin.
Inhibition of 5-HT-dependent T Cell Proliferation
Peripheral mononuclear blood cells (PBMC) are obtained from the buffy coat of the blood of healthy subjects. After isolation by means of isolymph gradients (Pharmacia), the PBMC are washed twice and used directly. Purified T cells are obtained by E rosette formation with sheep erythrocytes [cf. Blue, M. L., J. F. Daley, H. Levine, K. A. Craig and S. F. Schlossmann, 1986, Biosynthesis and surface expression of T8 by peripheral blood T4+ cells in vitro, J. Immunol. 137, 1202]. Monocytes are partially removed by adhesion to tissue culture plates or flasks. […] The cultures are treated with 1 μCi of ^3 H-thymidine for 6 h on the 7th day and collected on filter paper, and the incorporated radioactivity is determined by means of liquid scintillation counting.
The test substances are dissolved in 10 mM HCl in order to achieve a final concentration of 1 mM in each case. […] The inhibitory activity of the test substances is expressed as the IC50 in μM. […]

SMILES | IC50 [µM]
O=C1CC2(CC3c4ccccc4C2c2ccccc23)C(=O)N1CCCN1CCN(c2ccc(F)cc2)CC1 (centres unmarked) [Example 1, 1'-{3-[4-(4-Fluorophenyl)-piperazin-1-yl]-propyl}-9,10-dihydro-9,10-ethano-anthracene-11-spiro-3'-pyrrolidine-2',5'-dione] | 2
O=C1CC2(CC3c4ccccc4C2c2ccccc23)C(=O)N1CCCN1CCN(c2ccccc2)CC1 (centres unmarked) [Example 2] | 5

Source: US5461054A, “Anthracene-spiro-pyrrolindines” (Bayer Aktiengesellschaft, priority 1993, dated 1995)
